Measurements from patent US20090036444A1, “5-5-Membered fused heterocyclic compound and use thereof as HCV polymerase inhibitor” (priority 2003, published 2009).
Counter-ions that a name gives are not always drawn. Like-named read-outs stand apart in the source and are kept apart here.

Assays:
[1] = molecular target: T1, HCV polymerase H544 1b 3X (Hepatitis C virus genotype 1b, UniProt P26663); assay: Assay of enzyme (HCV polymerase) inhibitory activity, H544 1b 3X; format: biochemical, HCV BK strain
T1 construct: a region encoding NS5B (J Virol 1991 March, 65(3), 1105-13, 544 amino acids after deletion of 47 amino acids on the C-terminal); 6 His (C); made in house; host or cells: Escherichia coli
Source text: The evaluation of the HCV polymerase inhibitory activity of the compound of the present invention is explained in the following. This polymerase is an enzyme coded for by the non-structural protein region called NS5B on the genome RNA of HCV (EMBO J., 15:12-22, 1996).
Using, as a template, a cDNA clone corresponding to the full length genome RNA of HCV BK strain obtained from the blood of a patient with hepatitis C, a region encoding NS5B (J Virol 1991 March, 65(3), 1105-13, 544 amino acids after deletion of 47 amino acids on the C-terminal) was amplified by PCR. The objective gene was prepared by adding a 6 His tag {base pair encoding 6 continuous histidine (His)} to the 3′ end thereof and transformed to Escherichia coli. The Escherichia coli capable of producing the objective protein was cultured. The obtained cells were suspended in a buffer solution and crushed in a microfluidizer. The supernatant was obtained by centrifugation and applied to various column chromatographys {mono-S, Sephacryl S-200 (Pharmacia)}, inclusive of metal chelate chromatography, to give a standard enzyme product.
Using a synthetic primer designed based on the sequence of HCV genomic 3′ untranslated region, a DNA fragment (148 bp) containing polyU and 3′X sequence was entirely synthesized and cloned into plasmid pBluescript SK II (+) (Stratagene). The cDNA encoding full length NS5B, which was prepared in i) above, was digested with restriction enzyme KpnI to give a cDNA fragment containing the nucleotide sequence of from the restriction enzyme cleavage site to the termination codon. This cDNA fragment was inserted into the upstream of 3′ untranslated region of the DNA in pBluescript SK II(+) and ligated. The about 450 bp inserted DNA sequence was used as a template in the preparation of substrate RNA. This plasmid was cleaved immediately after the 3′X sequence, linearized and purified by phenol-chloroform treatment and ethanol precipitation to give DNA.
RNA was synthesized (37° C., 3 hr) by run-off method using this purified DNA as a template, a promoter of pBluescript SK II(+), MEGAscript RNA synthesis kit (Ambion) and T7 RNA polymerase. DNase I was added and the mixture was incubated for 1 hr. The template DNA was removed by decomposition to give a crude RNA product. This crude product was treated with phenol-chloroform and purified by ethanol precipitation to give the objective substrate RNA.
This RNA was applied to formaldehyde denaturation agarose gel electrophoresis to confirm the quality thereof and preserved at −80° C.
A test substance (compound of the present invention) and a reaction mixture (30 μl) having the following composition were reacted at 25° C. for 90 min. 10% Trichloroacetic acid at 4° C. and 1% sodium pyrophosphate solution (150 μl) were added to this reaction mixture to stop the reaction. The reaction mixture was left standing in ice for 15 min to insolubilize RNA. This RNA was trapped on a glass filter (Whatman GF/C and the like) upon filtration by suction. This filter was washed with a solution containing 1% trichloroacetic acid and 0.1% sodium pyrophosphate, washed with 90% ethanol and dried. A liquid scintillation cocktail (Packard) was added and the radioactivity of RNA synthesized by the enzyme reaction was measured on a liquid scintillation counter.
The HCV polymerase inhibitory activity (IC50) of the compound of the present invention was calculated from the values of radioactivity of the enzyme reaction with and without the test substance.
The results are shown in Table 18, wherein each symbol means that IC50 falls within the following range.
Reaction mixture: HCV polymerase (0.5 μg/ml) obtained in i), substrate RNA (5 μg/ml) obtained in ii), ATP (50 μM), GTP (50 μM), CTP (50 μM), UTP (2 μM), [5,6-^3H] UTP (46 Ci/mmol (Amersham), 1 μCi) 20 mM Tris-HCl (pH 7.5), EDTA (1 mM), MgCl2 (5 mM), NaCl (50 mM), DTT (1 mM), BSA (0.01%)

[2] = molecular target: T2, HCV polymerase H544 1a 3X (UniProt P27958); assay: Assay of enzyme (HCV polymerase) inhibitory activity, H544 1a 3X; format: biochemical
T2 construct: fused on or other part: 6 His tag at the C-terminus, for the BK (1b) enzyme

[3] = 25° C., 90 min, [5,6-3H]UTP incorporation, read-out: H544 1a 3X IC50
[4] = read-out: H544 1a 3X IC50, 25° C., 90 min, [5,6-3H]UTP incorporation

T1 sequence (P26663 2420-2963): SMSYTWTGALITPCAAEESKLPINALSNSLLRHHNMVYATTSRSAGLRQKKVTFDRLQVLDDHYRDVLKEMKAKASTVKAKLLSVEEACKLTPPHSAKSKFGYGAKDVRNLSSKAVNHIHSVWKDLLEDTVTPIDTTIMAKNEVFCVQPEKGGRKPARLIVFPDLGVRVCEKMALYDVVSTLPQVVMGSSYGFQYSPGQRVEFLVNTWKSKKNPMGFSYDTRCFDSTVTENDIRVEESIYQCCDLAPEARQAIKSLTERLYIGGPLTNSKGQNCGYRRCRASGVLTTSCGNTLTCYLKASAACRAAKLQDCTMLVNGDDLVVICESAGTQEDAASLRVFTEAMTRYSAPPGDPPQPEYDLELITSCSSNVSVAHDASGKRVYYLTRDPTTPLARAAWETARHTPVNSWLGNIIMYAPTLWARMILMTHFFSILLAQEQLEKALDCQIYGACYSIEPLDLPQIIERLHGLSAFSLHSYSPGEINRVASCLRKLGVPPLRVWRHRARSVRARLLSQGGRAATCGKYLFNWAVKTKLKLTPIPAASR

Compound	IC50 [1]	IC50 [2, 3]	IC50 [2, 4]
Cn1c(-c2ccc(OCc3cc(N)ccc3N3CCN(S(C)(=O)=O)CC3)cc2)c(C2CCCCC2)c2sc(C(=O)O)cc21 [Example 19, 5-(4-[5-amino-2-(4-methanesulfonylpiperazin-1-yl)benzyloxy]phenyl)-6-cyclohexyl-4-methyl-4H-thieno[3,2-b]pyrrole-2-carboxylic acid hydrochloride]	< 0.1 µM	< 0.1 µM	
CN(C)C(=O)Cn1c(-c2ccc(OCc3ccccc3N3CCOCC3)cc2)c(C2CCCCC2)c2sc(C(=O)O)cc21 [Example 38, 6-cyclohexyl-4-dimethylcarbamoylmethyl-5-[4-(2-morpholinobenzyloxy)phenyl]-4H-thieno[3,2-b]pyrrole-2-carboxylic acid]	< 0.1 µM	< 0.1 µM	
O=C(O)c1cc2c(s1)c(C1CCCCC1)c(-c1ccc(OCc3ccccc3)cc1)n2Cc1ccccc1 [Example 45, 4-benzyl-5-(4-benzyloxyphenyl)-6-cyclohexyl-4H-thieno[3,2-b]pyrrole-2-carboxylic acid]	0.1 to 1 µM	0.1 to 1 µM	
COc1ccc(-c2c(C3CCCCC3)c3sc(C(=O)O)cc3n2CC(=O)NC(C)(C)C)cc1 [Example 33, 4-(tert-butylcarbamoylmethyl)-6-cyclohexyl-5-(4-methoxyphenyl)-4H-thieno[3,2-b]pyrrole-2-carboxylic acid]	0.1 to 1 µM	< 0.1 µM	
Cn1c(-c2ccc(OCc3ccccc3)cc2)c(C2CCCCC2)c2sc(C(=O)O)cc21 [Example 12, 5-(4-benzyloxyphenyl)-6-cyclohexyl-4-methyl-4H-thieno[3,2-b]pyrrole-2-carboxylic acid]	0.1 to 1 µM	0.1 to 1 µM	
CN(C)CC(=O)N(C)c1ccc(N2CCOCC2)c(COc2ccc(-c3c(C4CCCCC4)c4sc(C(=O)O)cc4n3C)cc2)c1 [Example 43, 6-cyclohexyl-5-(4-{5-[N-(2-dimethylaminoacetyl)-N-methylamino]-2-morpholinobenzyloxy}phenyl)-4-methyl-4H-thieno[3,2-b]pyrrole-2-carboxylic acid dihydrochloride]	< 0.1 µM		< 0.1 µM
CN(C)C(=O)Cn1c(-c2ccc(OC3CCCN(C(=O)OC(C)(C)C)C3)cc2)c(C2CCCCC2)c2sc(C(=O)O)cc21 (centres unmarked) [Example 37, 5-[4-(1-tert-butoxycarbonylpiperidin-3-yloxy)phenyl]-6-cyclohexyl-4-dimethylcarbamoylmethyl-4H-thieno[3,2-b]pyrrole-2-carboxylic acid]	< 0.1 µM	< 0.1 µM	
CC(C)(C)NC(=O)Cn1c(-c2ccc(OCc3ccccc3)cc2)c(C2CCCCC2)c2sc(C(=O)O)cc21 [Example 44, 5-(4-benzyloxyphenyl)-4-(tert-butylcarbamoylmethyl)-6-cyclohexyl-4H-thieno[3,2-b]pyrrole-2-carboxylic acid]	0.1 to 1 µM	0.1 to 1 µM	
O=C(O)c1cc2c(s1)c(C1CCCCC1)c(-c1ccc(OCc3ccccc3)cc1)n2CC1CCCCC1 [Example 48, 5-(4-benzyloxyphenyl)-6-cyclohexyl-4-cyclohexylmethyl-4H-thieno[3,2-b]pyrrole-2-carboxylic acid]	0.1 to 1 µM	0.1 to 1 µM	
O=C(O)c1cc2c(s1)c(C1CCCCC1)c(-c1ccc(OCc3ccccc3)cc1)n2CCN1CCN(C2CCCCC2)CC1 [Example 53, 5-(4-benzyloxyphenyl)-6-cyclohexyl-4-[2-(4-cyclohexylpiperazin-1-yl)ethyl]-4H-thieno[3,2-b]pyrrole-2-carboxylic acid dihydrochloride]	0.1 to 1 µM		0.1 to 1 µM
CC(=O)N(C)c1ccc(N2CCOCC2)c(COc2ccc(-c3c(C4CCCCC4)c4sc(C(=O)O)cc4n3C)cc2)c1 [Example 17, 5-{4-[5-(N-acetyl-N-methylamino)-2-morpholinobenzyloxy]phenyl}-6-cyclohexyl-4-methyl-4H-thieno[3,2-b]pyrrole-2-carboxylic acid hydrochloride]	< 0.1 µM		< 0.1 µM
CCN1CCN(C(=O)Cn2c(-c3ccc(OC)cc3)c(C3CCCCC3)c3sc(C(=O)O)cc32)CC1 [Example 26, 6-cyclohexyl-4-(4-ethylpiperazin-1-yl)carbonylmethyl-5-(4-methoxyphenyl)-4H-thieno[3,2-b]pyrrole-2-carboxylic acid]	< 0.1 µM	0.1 to 1 µM	
O=C(O)c1cc2nc(-c3ccc(OCc4cc(N5CCCC5=O)ccc4-c4ccc(Cl)cc4)cc3)n(C3CCCCC3)c2s1 [Example 3, 2-{4-[4′-chloro-4-(2-oxopyrrolidin-1-yl)biphenyl-2-ylmethoxy]phenyl}-3-cyclohexyl-3H-thieno[2,3-d]imidazole-5-carboxylic acid hydrochloride]	< 0.1 µM		0.1 to 1 µM
CC(C)C(=O)Nc1ccc(N2CCOCC2)c(COc2ccc(-c3c(C4CCCCC4)c4sc(C(=O)O)cc4n3C)cc2)c1 [Example 29, 6-cyclohexyl-5-[4-(5-isobutyrylamino-2-morpholinobenzyloxy)phenyl]-4-methyl-4H-thieno[3,2-b]pyrrole-2-carboxylic acid hydrochloride]	< 0.1 µM	< 0.1 µM	
CN(CCN1CCOCC1)CCn1c(-c2ccc(OCc3ccccc3)cc2)c(C2CCCCC2)c2sc(C(=O)O)cc21 [Example 58, 5-(4-benzyloxyphenyl)-6-cyclohexyl-4-{2-[N-methyl-N-(2-morpholinoethyl)amino]ethyl}-4H-thieno[3,2-b]pyrrole-2-carboxylic acid dihydrochloride]	0.1 to 1 µM		0.1 to 1 µM
CN(C)C(=O)Cn1c(-c2ccc(OCc3ccccc3)cc2)c(C2CCCCC2)c2sc(C(=O)O)cc21 [Example 14, 5-(4-benzyloxyphenyl)-6-cyclohexyl-4-dimethylcarbamoylmethyl-4H-thieno[3,2-b]pyrrole-2-carboxylic acid]	< 0.1 µM	< 0.1 µM	
O=C(O)c1cc2c(s1)c(C1CCCCC1)c(-c1ccc(OCc3ccccc3)cc1)n2CCN1CCC(N2CCCCC2)CC1 [Example 55, 5-(4-benzyloxyphenyl)-4-[2-(1,4′-bipiperidinyl-1′-yl)ethyl]-6-cyclohexyl-4H-thieno[3,2-b]pyrrole-2-carboxylic acid dihydrochloride]	0.1 to 1 µM	0.1 to 1 µM	
O=C(O)c1cc2c(s1)c(C1CCCCC1)c(-c1ccc(OCc3ccccc3)cc1)n2CCN1CCOCC1 [Example 47, 5-(4-benzyloxyphenyl)-6-cyclohexyl-4-(2-morpholinoethyl)-4H-thieno[3,2-b]pyrrole-2-carboxylic acid]	0.1 to 1 µM	0.1 to 1 µM	
Cn1c(-c2ccc(OCc3cc(N4CCCC4=O)ccc3N3CCN(S(C)(=O)=O)CC3)cc2)c(C2CCCCC2)c2sc(C(=O)O)cc21 [Example 18, 6-cyclohexyl-5-{4-[2-(4-methanesulfonylpiperazin-1-yl)-5-(2-oxopyrrolidin-1-yl)benzyloxy]phenyl}-4-methyl-4H-thieno[3,2-b]pyrrole-2-carboxylic acid hydrochloride]	< 0.1 µM	< 0.1 µM	
